Measured values taken from patent US6737383B1, “Herbicidal oxadiazolidines” (priority 1999, dated 2004).

How the values were obtained:
wild oat = experiment: Test E wild oat; type: in vivo, Avena fatua; details: Preemergence, 0 to 100 scale where 0 is no effect and 100 is complete control
blackgrass [1] = experiment: Test B pre/postemergence blackgrass; type: in vivo, Alopecurus myosuroides
How it was run: (§1)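 Response is a visual 0-to-10 score relative to untreated plants, where 0 means no effect and 10 means complete control, taken twelve to sixteen days after application. Treatments went onto soil at planting and onto foliage of 1- to 4-leaf plants, using a surfactant-containing non-phytotoxic solvent.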

winter wheat [2] = experiment: Test E winter wheat; type: in vivo, Triticum aestivum; details: Preemergence
surinam grass [3] = experiment: Test D surinam grass; type: in vivo, Brachiaria decumbens; details: Preemergence, 0 to 100 scale
How it was run: (§2)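 Greenhouse pots, sandy loam, single species per pot. Preemergence tests: soil-surface application ≤1 day after planting. Compound formulated in non-phytotoxic solvent with surfactant. Visual rating 14–21 DAT, scale 0–100.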

common ragweed = experiment: Test D common ragweed; type: in vivo, Ambrosia elatior; details: Preemergence, 0 to 100 scale
How it was run: as §2

dallisgrass = experiment: Test D dallisgrass; type: in vivo, Paspalum dilatatum; details: Preemergence, 0 to 100 scale
How it was run: as §2

goosegrass = experiment: Test D goosegrass; type: in vivo, Eleusine indica; details: Preemergence, 0 to 100 scale
How it was run: as §2

green foxtail [4] = experiment: Test E green foxtail; type: in vivo, Setaria viridis; details: Preemergence
Italian ryegrass = experiment: Test E Italian ryegrass; type: in vivo, Lolium multiflorum; details: Preemergence
bamyardgrass = experiment: Test B flood test barnyardgrass; type: in vivo, Echinochloa crus-galli
How it was run: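 Plants were grown to the 2-leaf stage before treatment with test chemical, then held in a greenhouse for twelve to sixteen days. Injury was visually rated against untreated controls on a 0–10 scale, where 0 is no effect and 10 is complete control.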

bedstraw = experiment: Test B pre/postemergence bedstraw; type: in vivo, Galium aparine; details: Preemergence
How it was run: as §1

Green foxtail [5] = experiment: Test D green foxtail; type: in vivo; details: Preemergence, 0 to 100 scale
How it was run: as §2

winter barley = experiment: Test E winter barley; type: in vivo, Hordeum vulgare; details: Preemergence
surinam grass [6] = experiment: Test B pre/postemergence surinam grass; type: in vivo, Brachiaria decumbens
How it was run: as §1

large crabgrass = experiment: Test D large crabgrass; type: in vivo, Digitaria sanguinalis; details: Preemergence, 0 to 100 scale
How it was run: as §2

winter wheat [7] = experiment: Test E winter wheat; type: in vivo, Triticum aestivum; details: Postemergence
How it was run: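 Postemergence: spray at 1–4 leaf stage, soil 60:40 sandy loam:potting mix; solvent + surfactant formulation; greenhouse 21–28 d; visual injury vs untreated controls.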

blackgrass [8] = experiment: Test E blackgrass; type: in vivo, Alopecurus myosuroides; details: Preemergence
[9] = Postemergence, Rate 62 g/ha, scale 0 to 10, 0 is no effect, 10 is complete control
[10] = Postemergence, Rate 250 g/ha, scale 0 to 10, 0 no effect, 10 complete control
[11] = Preemergence, Rate 62 g/ha, scale 0 to 10 (0 no effect, 10 complete control)
[12] = Preemergence, Rate 125 g/ha, scale 0 to 10 (0 no effect, 10 complete control)
[13] = Preemergence, Rate 250 g/ha, scale of 0 to 10 where 0 is no effect and 10 is complete control
[14] = Preemergence, Rate 500 g/ha, scale 0 (no effect) to 10 (complete control)
[15] = Rate 500 g/ha, 0 to 100 scale where 0 is no effect and 100 is complete control
[16] = Rate 1000 g/ha, 0 to 100 scale where 0 is no effect and 100 is complete control
[17] = Rate 125 g/ha, 0 no injury, 100 complete control

CC(C)N(C(=O)n1oc(=O)n(Cc2ccccc2)c1=O)c1ccccc1 [Compound 94]
Plant response rating, Wild oat (wild oat; Rate 500 g/ha): 40 | Plant response rating, Wild oat (wild oat; Rate 1000 g/ha): 50 | Blackgrass plant response rating (blackgrass [1]; [9]): 0 | Blackgrass plant response rating (blackgrass [1]; Postemergence, Rate 125 g/ha, scale of 0 to 10 where 0 is no effect and 10 is complete control): 0 | Blackgrass plant response rating (blackgrass [1]; [10]): 3 | Blackgrass plant response rating (blackgrass [1]; [11]): 0 | Plant response rating, Blackgrass (blackgrass [1]; [12]): 1 | Plant response rating, Blackgrass (blackgrass [1]; [13]): 8 | Blackgrass plant response rating (blackgrass [1]; [14]): 9 | Blackgrass plant response rating (blackgrass [1]; Rate 500 g/ha, Postemergence, scale 0 to 10, 0 no effect, 10 complete control): 6 | Plant response rating, Wheat (winter) (winter wheat [2]; Rate 250 g/ha, 0 to 100 scale): 30 | Plant response rating, Wheat (winter) (winter wheat [2]; [15]): 30 | Plant response rating, Wheat (winter) (winter wheat [2]; [16]): 40 | Surinam grass plant response rating (surinam grass [3]; [17]): 80 | Plant response rating Surinam grass (surinam grass [3]; Rate 500 g/ha): 90 | Plant response rating, C. ragweed (common ragweed; [17]): 0 | Plant response rating, C. ragweed (common ragweed; Rate 500 g/ha): 10 | Plant response rating, Dallisgrass (dallisgrass; [17]): 98 | Plant response rating, Dallisgrass (dallisgrass; Rate 500 g/ha): 100 | Plant response rating, Goosegrass (goosegrass; [17]): 85 | Plant response rating, Goosegrass (goosegrass; Rate 500 g/ha): 100 | Plant response rating, Green foxtail (green foxtail [4]; Rate 250 g/ha, 0 to 100 scale): 80 | Plant response rating, Green foxtail (green foxtail [4]; [15]): 90 | Plant response rating, Green foxtail (green foxtail [4]; [16]): 100 | Plant response rating, I. Ryegrass (Italian ryegrass; Rate 250 g/ha, 0 to 100 scale): 40 | Plant response rating, I. Ryegrass (Italian ryegrass; [15]): 60 | Plant response rating, I. Ryegrass (Italian ryegrass; [16]): 60 | Barnyardgrass plant response rating (bamyardgrass; [9]): 0 | Barnyardgrass plant response rating (bamyardgrass; Rate 125 g/ha, Postemergence section (flood test species), scale 0 to 10, 0 no effect, 10 complete control): 0 | Barnyardgrass plant response rating (bamyardgrass; Rate 250 g/ha, headed Pre-emergence (flood test species), scale 0 to 10 (0 no effect, 10 complete control)): 0 | Plant response rating, Barnyardgrass (bamyardgrass; Rate 500 g/ha, headed Pre-emergence (flood test species), scale 0 to 10 (0 no effect, 10 complete control)): 0 | Barnyardgrass plant response rating (bamyardgrass; Rate 500 g/ha, listed under Postemergence (flood test species), scale 0 to 10, 0 no effect, 10 complete control): 9 | Barnyardgrass plant response rating (bamyardgrass; Rate 1000 g/ha, Pre-emergence (as headed), scale 0 to 10): 0 | Barnyardgrass plant response rating (bamyardgrass; Rate 2000 g/ha, Pre-emergence (as headed), scale 0 to 10, 0 no effect, 10 complete control): 7 | Barnyardgrass plant response rating (bamyardgrass; flood test, listed under Postemergence, Rate 250 g/ha, scale 0 to 10, 0 no effect, 10 complete control): 0 | Bedstraw plant response rating (bedstraw; Rate 62 g/ha, scale 0 to 10 (0 no effect, 10 complete control)): 0 | Plant response rating, Bedstraw (bedstraw; Rate 125 g/ha, scale 0 to 10 (0 no effect, 10 complete control)): 0 | Plant response rating, Bedstraw (bedstraw; Rate 250 g/ha, scale of 0 to 10 where 0 is no effect and 10 is complete control): 0 | Bedstraw plant response rating (bedstraw; Rate 500 g/ha, scale 0 (no effect) to 10 (complete control)): 0 | Green foxtail plant response rating (Green foxtail [5]; [17]): 90 | Plant response rating, Green foxtail (Green foxtail [5]; [17]): 90 | Plant response rating, Green foxtail (Green foxtail [5]; Rate 500 g/ha): 100 | Plant response rating, Barley (winter) (winter barley; Rate 250 g/ha, 0 to 100 scale): 40 | Plant response rating, Barley (winter) (winter barley; [15]): 50 | Plant response rating, Barley (winter) (winter barley; [16]): 50 | B. signalgrass plant response rating (surinam grass [6]; [9]): 0 | B. signalgrass plant response rating (surinam grass [6]; [10]): 0 | B. signalgrass plant response rating (surinam grass [6]; [11]): 0 | Plant response rating, B. signalgrass (surinam grass [6]; [12]): 1 | Plant response rating, B. signalgrass (surinam grass [6]; [13]): 1 | B. signalgrass plant response rating (surinam grass [6]; [14]): 5 | B. signalgrass plant response rating (surinam grass [6]; Rate 125 g/ha, Postemergence, scale 0 to 10, 0 no effect, 10 complete control): 0 | B. signalgrass plant response rating (surinam grass [6]; Rate 500 g/ha, Postemergence, scale of 0 to 10 where 0 is no effect and 10 is complete control): 2 | Plant response rating Large crabgrass (large crabgrass; [17]): 98 | Plant response rating Large crabgrass (large crabgrass; Rate 500 g/ha): 100 | Plant response rating, Wheat (winter) (winter wheat [7]; Rate 250 g/ha, 0 to 100 scale (0 no effect, 100 complete control)): 0 | Plant response rating, Wheat (winter) (winter wheat [7]; Rate 1000 g/ha, 0 to 100 scale, 0 is no effect and 100 is complete control): 0 | Plant response rating, Wheat (winter) (winter wheat [7]; Rate 500 g/ha, 0 to 100 scale, 0 no effect, 100 complete control): 0 | Plant response rating, Blackgrass (blackgrass [8]; Rate 250 g/ha, 0 to 100 scale): 60 | Plant response rating, Blackgrass (blackgrass [8]; [15]): 60 | Plant response rating, Blackgrass (blackgrass [8]; [16]): 60
